Bounds are passed on as bounds.

The assay relates to 4T1. In words: Cytotoxicity against mouse 4T1 cells assessed as reduction in cell viability incubated for 24 hrs by MTT assay. Format: functional, cell-based. The following applies: 4T1, 24 h.
Take `CC(=O)O[C@@H]1[C@H]2[C@@H](OC(=O)c3ccccc3)[C@@H](C)C[C@]2(OC(C)=O)C(=O)[C@@H](C)[C@@H]2[C@@H]3[C@H](CC[C@]21C)C3(C)C`: the IC50 came to 2500 nM.

For `CC(=O)O[C@@H]1[C@H]2[C@@H](OC(=O)c3ccccc3)[C@@H](C)C[C@]2(OC(C)=O)C(=O)[C@H](C)[C@@H]2[C@@H]3[C@H](CC[C@]21C)C3(C)C`, the concentration for half-maximal inhibition (IC50) turned out to be 8200 nM.

For the molecule `C=C1CC[C@H]2[C@@H](/C=C(\C)C(=O)[C@@]3(OC(C)=O)C[C@H](C)[C@H](OC(=O)c4ccccc4)[C@@H]3[C@H]1OC(C)=O)C2(C)C`, the IC50 was greater than 10000 nM.

For the molecule `CC(=O)O[C@H]1C(=O)[C@@]2(C)[C@H]([C@H](OC(=O)c3ccccc3)[C@]3(O)C[C@H](OC(=O)[C@H](O)[C@@H](NC(=O)c4ccccc4)c4ccccc4)C(C)=C1C3(C)C)[C@]1(OC(C)=O)CO[C@@H]1C[C@@H]2O` [PACLITAXEL], the IC50 came to 800 nM.

These data come from ChEMBL document CHEMBL4825681, “Iron-Catalyzed Skeletal Conversion of Lathyrane to Premyrsinane Euphorbia Diterpenes and Their Cytotoxic Activities” (J Nat Prod, 2021).
